# Source: patent publication US20230085307A1, “PYRIDAZINONE COMPOUND AND HERBICIDE” (NISSAN CHEMICAL CORPORATION, priority 2019, published 2023)
# What was measured:
# [1] = tested on: barnyard grass; test: Test Example 4: herbicidal effect by soil treatment (Table 19, symbol H); assay type: in vivo, barnyard grass (Echinochloa crus-galli); conditions: amount of applied herbicide 320 g/ha
# Procedure, shortened: (§1)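 Soil-surface application: an emulsion agent diluted with water to the predetermined dose is sprayed uniformly over seeds lying under roughly 1.5 cm of sterilized diluvial soil. Boxes stay in a greenhouse at 25° C. to 30° C. Three weeks later, each species is graded on previously defined criteria.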
# [2] = tested on: lambsquarters; test: Test Example 4: herbicidal effect by soil treatment (Table 19, symbol O); assay type: in vivo, lambsquarters (Chenopodium album); conditions: amount of applied herbicide 320 g/ha
# Procedure, shortened: as §1
# [3] = tested on: wild oat; test: Test Example 5: herbicidal effect by foliage application, plastic box (Table 20, symbol I); assay type: in vivo, wild oat (Avena fatua); conditions: foliage application, 320 g/ha, evaluated three weeks after application
# Procedure, shortened: (§2)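 Sow seeds spot-wise in sterilized diluvial soil; cover with ~1.5 cm soil. Grow 14 days in greenhouse, 25° C. to 30° C. Spray foliage with emulsion diluted to predetermined amount. Rate effect after 3 weeks.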
# [4] = tested on: Italian ryegrass; test: Test Example 5: herbicidal effect by foliage application, plastic box (Table 20, symbol K); assay type: in vivo, Italian ryegrass (Lolium multiflorum); conditions: foliage application, 320 g/ha, evaluated three weeks after application
# Procedure, shortened: as §2
# [5] = tested on: redroot pigweed; test: Test Example 5: herbicidal effect by foliage application, plastic box (Table 20, symbol N); assay type: in vivo, redroot pigweed (Amaranthus retroflexus); conditions: foliage application, 320 g/ha, evaluated three weeks after application
# Procedure, shortened: as §2
# [6] = tested on: persian speedwell; test: Test Example 4: herbicidal effect by soil treatment (Table 19, symbol R); assay type: in vivo, Persian speedwell (Veronica persica); conditions: amount of applied herbicide 320 g/ha
# Procedure, shortened: as §1
# [7] = tested on: redroot pigweed; test: Test Example 4: herbicidal effect by soil treatment (Table 19, symbol N); assay type: in vivo, redroot pigweed (Amaranthus retroflexus); conditions: amount of applied herbicide 320 g/ha
# Procedure, shortened: as §1
# [8] = tested on: rice flat sedge; test: Test Example 3: herbicidal effect by foliage application, Wagner pot (Table 18, symbol E); assay type: in vivo, rice flat sedge (Cyperus iria); conditions: amount of applied herbicide 320 g/ha
# Procedure, shortened: (§3)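 Plants were sown in alluvial soil held under 0.1–0.5 cm standing water and grown 14 days in a greenhouse at 25–30 °C. An emulsifiable formulation, water-diluted to the set dose, was then sprayed onto the foliage, and effects were scored three weeks later using previously defined criteria.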
# [9] = tested on: green foxtail; test: Test Example 4: herbicidal effect by soil treatment (Table 19, symbol G); assay type: in vivo, green foxtail (Setaria viridis); conditions: amount of applied herbicide 320 g/ha
# Procedure, shortened: as §1
# [10] = tested on: windgrass; test: Test Example 5: herbicidal effect by foliage application, plastic box (Table 20, symbol L); assay type: in vivo, windgrass (Apera spica-venti); conditions: foliage application, 320 g/ha, evaluated three weeks after application
# Procedure, shortened: as §2
# [11] = tested on: blackgrass; test: Test Example 5: herbicidal effect by foliage application, plastic box (Table 20, symbol J); assay type: in vivo, blackgrass (Alopecurus myosuroides); conditions: foliage application, 320 g/ha, evaluated three weeks after application
# Procedure, shortened: as §2
# [12] = tested on: green foxtail; test: Test Example 5: herbicidal effect by foliage application, plastic box (Table 20, symbol G); assay type: in vivo, green foxtail (Setaria viridis); conditions: foliage application, 320 g/ha, evaluated three weeks after application
# Procedure, shortened: as §2
# [13] = tested on: lambsquarters; test: Test Example 5: herbicidal effect by foliage application, plastic box (Table 20, symbol O); assay type: in vivo, lambsquarters (Chenopodium album); conditions: foliage application, 320 g/ha, evaluated three weeks after application
# Procedure, shortened: as §2
# [14] = tested on: late watergrass; test: Test Example 1: herbicidal activity, application before weed generation under submerged conditions (Table 16, symbol A); assay type: in vivo, late watergrass (Echinochloa oryzicola); conditions: 320 g/ha applied herbicide
# Procedure, shortened: (§4)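 Alluvial soil was flooded to 4 cm depth, weed seeds were sown mixed and 2.5-leaf rice seedlings were transplanted. On sowing day, the compound's emulsion, diluted in water to a set dose, was applied to the water surface. Plants grew at 25–30 °C and were scored 0–5 after three weeks.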
# [15] = tested on: southern crabgrass; test: Test Example 5: herbicidal effect by foliage application, plastic box (Table 20, symbol F); assay type: in vivo, southern crabgrass (Digitaria ciliaris); conditions: foliage application, 320 g/ha, evaluated three weeks after application
# Procedure, shortened: as §2
# [16] = tested on: Japanese bulrush; test: Test Example 1: herbicidal activity, application before weed generation under submerged conditions (Table 16, symbol B); assay type: in vivo, Japanese bulrush (Schoenoplectus juncoides); conditions: 320 g/ha applied herbicide
# Procedure, shortened: as §4
# [17] = tested on: persian speedwell; test: Test Example 5: herbicidal effect by foliage application, plastic box (Table 20, symbol R); assay type: in vivo, Persian speedwell (Veronica persica); conditions: foliage application, 320 g/ha, evaluated three weeks after application
# Procedure, shortened: as §2
# [18] = tested on: chickweed; test: Test Example 5: herbicidal effect by foliage application, plastic box (Table 20, symbol P); assay type: in vivo, common chickweed (Stellaria media); conditions: foliage application, 320 g/ha, evaluated three weeks after application
# Procedure, shortened: as §2
# [19] = tested on: barnyard grass; test: Test Example 3: herbicidal effect by foliage application, Wagner pot (Table 18, symbol H); assay type: in vivo, barnyard grass (Echinochloa crus-galli); conditions: amount of applied herbicide 320 g/ha
# Procedure, shortened: as §3
# [20] = tested on: velvetleaf; test: Test Example 5: herbicidal effect by foliage application, plastic box (Table 20, symbol M); assay type: in vivo, velvetleaf (Abutilon theophrasti); conditions: foliage application, 320 g/ha, evaluated three weeks after application
# Procedure, shortened: as §2
# [21] = tested on: blackgrass; test: Test Example 4: herbicidal effect by soil treatment (Table 19, symbol J); assay type: in vivo, blackgrass (Alopecurus myosuroides); conditions: amount of applied herbicide 320 g/ha
# Procedure, shortened: as §1
# [22] = tested on: windgrass; test: Test Example 4: herbicidal effect by soil treatment (Table 19, symbol L); assay type: in vivo, windgrass (Apera spica-venti); conditions: amount of applied herbicide 320 g/ha
# Procedure, shortened: as §1
# [23] = tested on: southern crabgrass; test: Test Example 4: herbicidal effect by soil treatment (Table 19, symbol F); assay type: in vivo, southern crabgrass (Digitaria ciliaris); conditions: amount of applied herbicide 320 g/ha
# Procedure, shortened: as §1
# [24] = tested on: chickweed; test: Test Example 4: herbicidal effect by soil treatment (Table 19, symbol P); assay type: in vivo, common chickweed (Stellaria media); conditions: amount of applied herbicide 320 g/ha
# Procedure, shortened: as §1
# [25] = tested on: barnyard grass; test: Test Example 5: herbicidal effect by foliage application, plastic box (Table 20, symbol H); assay type: in vivo, barnyard grass (Echinochloa crus-galli); conditions: foliage application, 320 g/ha, evaluated three weeks after application
# Procedure, shortened: as §2
# [26] = tested on: oval-leafed pondweed; test: Test Example 1: herbicidal activity, application before weed generation under submerged conditions (Table 16, symbol C); assay type: in vivo, oval-leafed pondweed (Monochoria vaginalis); conditions: 320 g/ha applied herbicide
# Procedure, shortened: as §4
# [27] = tested on: Chinese sprangletop; test: Test Example 3: herbicidal effect by foliage application, Wagner pot (Table 18, symbol D); assay type: in vivo, chinese sprangletop (Leptochloa chinensis); conditions: amount of applied herbicide 320 g/ha
# Procedure, shortened: as §3
# [28] = tested on: wild oat; test: Test Example 4: herbicidal effect by soil treatment (Table 19, symbol I); assay type: in vivo, wild oat (Avena fatua); conditions: amount of applied herbicide 320 g/ha
# Procedure, shortened: as §1
# [29] = tested on: velvetleaf; test: Test Example 4: herbicidal effect by soil treatment (Table 19, symbol M); assay type: in vivo, velvetleaf (Abutilon theophrasti); conditions: amount of applied herbicide 320 g/ha
# Procedure, shortened: as §1
# [30] = tested on: Italian ryegrass; test: Test Example 4: herbicidal effect by soil treatment (Table 19, symbol K); assay type: in vivo, Italian ryegrass (Lolium multiflorum); conditions: amount of applied herbicide 320 g/ha
# Procedure, shortened: as §1
compound,measurement,setting,value
CCCC(=O)Oc1c(C)nn(C)c(=O)c1-c1c(-c2cccc(OC(C)(C)C)c2)sc2ccc(F)cc12 [2-224],herbicidal effect on H: barnyard grass,[1],0 (Herbicidal rate of 5% or less (almost no effect))
same,herbicidal effect on O: lambsquarters,[2],0 (Herbicidal rate of 5% or less (almost no effect))
same,herbicidal effect on I: wild oat (criteria 0-5),[3],0 (Herbicidal rate of 5% or less (almost no effect))
same,herbicidal effect on K: Italian ryegrass (criteria 0-5),[4],0 (Herbicidal rate of 5% or less (almost no effect))
same,herbicidal effect on N: redroot pigweed (criteria 0-5),[5],2 (Herbicidal rate of 20% or more and less than 40%)
same,herbicidal effect on R: persian speedwell,[6],4 (Herbicidal rate of 70% or more and less than 90%)
same,herbicidal effect on N: redroot pigweed,[7],0 (Herbicidal rate of 5% or less (almost no effect))
same,herbicidal effect on E: rice flat sedge,[8],3 (Herbicidal rate of 40% or more and less than 70%)
same,herbicidal effect on G: green foxtail,[9],0 (Herbicidal rate of 5% or less (almost no effect))
same,herbicidal effect on L: windgrass (criteria 0-5),[10],0 (Herbicidal rate of 5% or less (almost no effect))
same,herbicidal effect on J: blackgrass (criteria 0-5),[11],0 (Herbicidal rate of 5% or less (almost no effect))
same,herbicidal effect on G: green foxtail (criteria 0-5),[12],1 (Herbicidal rate of 5% or more and less than 20%)
same,herbicidal effect on O: lambsquarters (criteria 0-5),[13],3 (Herbicidal rate of 40% or more and less than 70%)
same,Herbicidal effect on A: late watergrass (grade 0-5),[14],5 (Herbicidal rate of 90% or more (almost completely withered))
same,herbicidal effect on F: southern crabgrass (criteria 0-5),[15],0 (Herbicidal rate of 5% or less (almost no effect))
same,Herbicidal effect on B: Japanese bulrush (grade 0-5),[16],0 (Herbicidal rate of 5% or less (almost no effect))
same,herbicidal effect on R: persian speedwell (criteria 0-5),[17],5 (Herbicidal rate of 90% or more (almost completely withered))
same,herbicidal effect on P: chickweed (criteria 0-5),[18],5 (Herbicidal rate of 90% or more (almost completely withered))
same,herbicidal effect on H: barnyard grass,[19],4 (Herbicidal rate of 70% or more and less than 90%)
same,herbicidal effect on M: velvetleaf (criteria 0-5),[20],3 (Herbicidal rate of 40% or more and less than 70%)
same,herbicidal effect on J: blackgrass,[21],0 (Herbicidal rate of 5% or less (almost no effect))
same,herbicidal effect on L: windgrass,[22],0 (Herbicidal rate of 5% or less (almost no effect))
same,herbicidal effect on F: southern crabgrass,[23],0 (Herbicidal rate of 5% or less (almost no effect))
same,herbicidal effect on P: chickweed,[24],0 (Herbicidal rate of 5% or less (almost no effect))
same,herbicidal effect on H: barnyard grass (criteria 0-5),[25],3 (Herbicidal rate of 40% or more and less than 70%)
same,Herbicidal effect on C: oval-leafed pondweed (grade 0-5),[26],0 (Herbicidal rate of 5% or less (almost no effect))
same,herbicidal effect on D: Chinese sprangletop,[27],4 (Herbicidal rate of 70% or more and less than 90%)
same,herbicidal effect on I: wild oat,[28],0 (Herbicidal rate of 5% or less (almost no effect))
same,herbicidal effect on M: velvetleaf,[29],0 (Herbicidal rate of 5% or less (almost no effect))
same,herbicidal effect on K: Italian ryegrass,[30],0 (Herbicidal rate of 5% or less (almost no effect))
